Assay results: the NIST ThermoML archive (doi:10.1016/j.jct.2015.07.005)
Values joined by “and” are separate entries in the source; they are usually repeats but may differ in a detail not shown here. Identical values can stand only once.

Settings: Gas, Frequency=0.005 MHz, Spherical cavity resonance method

COC(F)(F)C(F)(F)C(F)(F)F [heptafluoropropyl methyl ether]
Settings | speed of sound
324.96 K, 164.7 kPa | 110.67 m/s
324.97 K, 64.71 kPa | 115.86 m/s and 115.86 m/s
324.97 K, 95.55 kPa | 114.33 m/s
324.97 K, 95.56 kPa | 114.33 m/s
324.97 K, 95.57 kPa | 114.33 m/s
324.97 K, 95.59 kPa | 114.33 m/s
324.97 K, 133.44 kPa | 112.39 m/s
324.97 K, 133.45 kPa | 112.39 m/s
324.97 K, 164.69 kPa | 110.67 m/s
324.97 K, 164.72 kPa | 110.67 m/s
349.97 K, 63.93 kPa | 120.9 m/s
349.97 K, 63.94 kPa | 120.9 m/s
349.97 K, 154.62 kPa | 117.37 m/s
349.97 K, 154.64 kPa | 117.37 m/s
349.97 K, 235.72 kPa | 113.96 m/s
349.97 K, 235.74 kPa | 113.96 m/s
349.97 K, 235.77 kPa | 113.96 m/s
349.97 K, 317.58 kPa | 110.17 m/s
349.97 K, 317.59 kPa | 110.17 m/s
349.97 K, 317.63 kPa | 110.17 m/s
374.95 K, 63.1 kPa | 125.6 m/s and 125.6 m/s
374.95 K, 63.11 kPa | 125.6 m/s
374.95 K, 160.58 kPa | 122.61 m/s
374.95 K, 160.6 kPa | 122.61 m/s
374.95 K, 285.28 kPa | 118.5 m/s
374.95 K, 285.32 kPa | 118.5 m/s
374.95 K, 285.36 kPa | 118.5 m/s
374.95 K, 400.83 kPa | 114.37 m/s
374.95 K, 400.86 kPa | 114.37 m/s
374.95 K, 400.9 kPa | 114.36 m/s
374.95 K, 510.48 kPa | 110.03 m/s
374.95 K, 510.5 kPa | 110.03 m/s
374.95 K, 632.78 kPa | 104.58 m/s
374.95 K, 632.8 kPa | 104.58 m/s
374.95 K, 632.82 kPa | 104.58 m/s
374.96 K, 63.11 kPa | 125.6 m/s
374.96 K, 160.58 kPa | 122.61 m/s
399.99 K, 67.78 kPa | 129.91 m/s
399.99 K, 197.55 kPa | 126.68 m/s
399.99 K, 349.57 kPa | 122.65 m/s
399.99 K, 650.2 kPa | 113.69 m/s
399.99 K, 650.23 kPa | 113.69 m/s
399.99 K, 806.55 kPa | 108.28 m/s
399.99 K, 953.71 kPa | 102.52 m/s
399.99 K, 953.73 kPa | 102.52 m/s
399.99 K, 1130.3 kPa | 94.29 m/s
400 K, 67.78 kPa | 129.91 m/s
400 K, 197.63 kPa | 126.68 m/s
400 K, 197.66 kPa | 126.68 m/s
400 K, 349.52 kPa | 122.65 m/s
400 K, 349.53 kPa | 122.65 m/s
400 K, 502.98 kPa | 118.27 m/s
400 K, 503.01 kPa | 118.27 m/s
400 K, 503.03 kPa | 118.27 m/s
400 K, 805.95 kPa | 108.3 m/s
400 K, 805.97 kPa | 108.3 m/s
400 K, 805.99 kPa | 108.3 m/s
400 K, 806.53 kPa | 108.28 m/s
400 K, 806.58 kPa | 108.28 m/s
400 K, 953.71 kPa | 102.52 m/s
400 K, 1130.2 kPa | 94.3 m/s
424.94 K, 60.05 kPa | 134.29 m/s
424.94 K, 60.06 kPa | 134.29 m/s
424.94 K, 200.53 kPa | 131.44 m/s
424.94 K, 200.58 kPa | 131.44 m/s
424.94 K, 407.75 kPa | 127 m/s
424.94 K, 407.78 kPa | 127 m/s
424.94 K, 407.79 kPa | 127 m/s
424.94 K, 407.83 kPa | 127 m/s
424.94 K, 603.76 kPa | 122.51 m/s
424.94 K, 603.77 kPa | 122.51 m/s
424.94 K, 603.81 kPa | 122.51 m/s
424.94 K, 802.02 kPa | 117.61 m/s
424.94 K, 802.08 kPa | 117.6 m/s
424.94 K, 802.15 kPa | 117.6 m/s
424.94 K, 1005.8 kPa | 112.1 m/s
424.94 K, 1006 kPa | 112.1 m/s
424.94 K, 1006.1 kPa | 112.09 m/s
424.94 K, 1202.6 kPa | 106.2 m/s and 106.21 m/s
424.94 K, 1202.7 kPa | 106.2 m/s
424.94 K, 1393 kPa | 99.76 m/s
424.94 K, 1393.1 kPa | 99.76 m/s
424.94 K, 1393.2 kPa | 99.75 m/s
424.94 K, 1607.6 kPa | 91.22 m/s
424.94 K, 1607.7 kPa | 91.21 m/s
424.94 K, 1608.4 kPa | 91.18 m/s
424.94 K, 1608.5 kPa | 91.17 m/s
424.94 K, 1608.7 kPa | 91.17 m/s
449.95 K, 64.75 kPa | 138.25 m/s
449.95 K, 64.76 kPa | 138.25 m/s
449.95 K, 208.64 kPa | 135.84 m/s
449.95 K, 208.65 kPa | 135.84 m/s
449.95 K, 396.59 kPa | 132.57 m/s
449.95 K, 396.63 kPa | 132.57 m/s
449.95 K, 396.66 kPa | 132.57 m/s
449.95 K, 606.05 kPa | 128.76 m/s
449.95 K, 606.08 kPa | 128.76 m/s
449.95 K, 606.12 kPa | 128.76 m/s
449.95 K, 606.24 kPa | 128.76 m/s
449.95 K, 606.26 kPa | 128.76 m/s
449.95 K, 606.27 kPa | 128.76 m/s
449.95 K, 809.63 kPa | 124.87 m/s
449.95 K, 809.64 kPa | 124.87 m/s
449.95 K, 1001.1 kPa | 121.03 m/s and 121.04 m/s
449.95 K, 1209.6 kPa | 116.6 m/s
449.95 K, 1209.7 kPa | 116.6 m/s
449.95 K, 1413.8 kPa | 111.99 m/s
449.95 K, 1623.9 kPa | 106.9 m/s
449.96 K, 1001.1 kPa | 121.04 m/s
449.96 K, 1624.3 kPa | 106.89 m/s
475 K, 67.47 kPa | 142.11 m/s
475 K, 67.48 kPa | 142.11 m/s
475 K, 67.49 kPa | 142.12 m/s
475 K, 67.62 kPa | 142.11 m/s
475 K, 67.64 kPa | 142.11 m/s
475 K, 189.2 kPa | 140.43 m/s
475 K, 189.28 kPa | 140.42 m/s
475 K, 395.98 kPa | 137.47 m/s
475 K, 395.99 kPa | 137.47 m/s
475 K, 396.05 kPa | 137.47 m/s
475 K, 396.11 kPa | 137.47 m/s
475 K, 396.13 kPa | 137.47 m/s
475 K, 396.16 kPa | 137.47 m/s
475.01 K, 396.09 kPa | 137.47 m/s
475.01 K, 396.11 kPa | 137.47 m/s
475.01 K, 587.06 kPa | 134.67 m/s
475.01 K, 795.76 kPa | 131.5 m/s
475.01 K, 1005.5 kPa | 128.23 m/s
475.01 K, 1197.2 kPa | 125.14 m/s
475.01 K, 1402 kPa | 121.75 m/s
475.01 K, 1402.1 kPa | 121.75 m/s
475.02 K, 795.76 kPa | 131.5 m/s
475.02 K, 1005.5 kPa | 128.23 m/s
475.02 K, 1197.2 kPa | 125.14 m/s
475.02 K, 1402.1 kPa | 121.75 m/s
475.02 K, 1583.1 kPa | 118.65 m/s
475.02 K, 1583.2 kPa | 118.65 m/s
500.01 K, 62.05 kPa | 145.96 m/s
500.01 K, 62.06 kPa | 145.96 m/s
500.01 K, 62.27 kPa | 145.95 m/s
500.01 K, 192.99 kPa | 144.43 m/s
500.01 K, 193.25 kPa | 144.42 m/s
500.01 K, 193.35 kPa | 144.42 m/s
500.01 K, 400.4 kPa | 141.96 m/s
500.01 K, 400.43 kPa | 141.96 m/s
500.01 K, 400.48 kPa | 141.96 m/s
500.01 K, 400.64 kPa | 141.97 m/s
500.01 K, 400.67 kPa | 141.97 m/s
500.01 K, 605.81 kPa | 139.49 m/s
500.01 K, 804.2 kPa | 137.05 m/s
500.02 K, 400.69 kPa | 141.97 m/s
500.02 K, 605.7 kPa | 139.49 m/s
500.02 K, 804.24 kPa | 137.05 m/s
500.02 K, 804.31 kPa | 137.05 m/s
500.02 K, 1002.8 kPa | 134.57 m/s
500.02 K, 1206.9 kPa | 131.99 m/s and 131.98 m/s
500.02 K, 1207 kPa | 131.98 m/s
500.02 K, 1400.6 kPa | 129.51 m/s and 129.5 m/s
500.02 K, 1400.7 kPa | 129.5 m/s
500.02 K, 1593.1 kPa | 127 m/s
500.03 K, 1593.1 kPa | 127.01 m/s and 127 m/s
